The values that follow come from PubChem BioAssay AID1249 (Columbia University Molecular Screening Center, 2008).

This experiment is described as follows: cellular cytoskeleton assembly phenotype modulators – imaging, high-content imaging, retest and dose response, confirmation (AID 1249).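 As to all read-outs here: compound exposure lasted 24 h before fixation.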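 As to inhibition: plate controls were untreated cells for no effect and reference compound treated cells for full effect.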 The note with it: cell-based imaging, cytoskeleton assembly phenotype, high content; for inhibition: at 2 µM, stronger effect = higher value.

Active and inactive are the calls of the source. No rule for the calls is given here.

Usually inhibition stands for the drop in the measured response relative to a control, in per cent. Turning to `Cn1nc(CC(=O)NC2CCCCCC2)c2ccccc2c1=O`, the inhibition is -17.6% (inactive). `CCOC(=O)C(C)Oc1cccc2c(=O)n(CC(=O)NCc3ccc4c(c3)OCO4)ccc12` (centres undefined): the inhibition was 1.3% (inactive).

Take `CC(C)(C)NC(=O)CSc1nsc(SCC(=O)NC(C)(C)C)c1C#N`: the inhibition is -0.7% (inactive). On the same count and under the same terms, for `COc1ccc(CN2CCCCC2C(=O)Nc2ccc(OC)c(OCC(C)C)c2)cc1OC` (centres undefined) the value was -2.9% (inactive); for `Cc1ccccc1-c1cc(-c2ccccc2O)on1`, -5.9% (inactive); for `CCCCSc1nc(C)cc(SCC(=O)N/N=C/c2cccc(OC)c2O)n1`, -6.7% (inactive). Take `O=C1c2cccc3c([N+](=O)[O-])ccc(c23)C(=O)N1c1ccc(Cl)cn1`: the inhibition was -13.4% (inactive).

For the molecule `CCCc1sc(N/N=C/c2ccccn2)nc1-c1ccc(Br)cc1`, the inhibition was -11.5% (inactive). On the same count and under the same terms, for `O=C(/C(=C/c1ccc(Cl)cc1)c1nc2ccccc2[nH]1)c1cccs1` the value was -2.9% (inactive); for `Cc1ccc(Nc2nc(CSc3nnnn3C)cs2)cc1`, -5.6% (inactive); for `CC(=O)c1cccc(Nc2nc(-c3cccc([N+](=O)[O-])c3)cs2)c1`, -7.7% (inactive). Same read-out and setting: with `Cc1cc(NC(=O)C2C3C=CC(C3)C2C(=O)O)no1` (centres undefined) the figure was 0.1% (inactive). Still for that read-out and setting: with `COc1ccc(NC(=O)N(Cc2ccc3c(c2)OCO3)C2CC(=O)N(c3ccc(OC)cc3)C2=O)cc1` (centres undefined) the figure was -22.4% (inactive); with `CCc1ccc2oc(-c3cc(N)ccc3O)nc2c1`, -11.6% (inactive); with `CCN(CC)c1ccc(C2=NNC(=O)CC2C)cc1[N+](=O)[O-]` (centres undefined), -7.3% (inactive). Turning to `FC(F)(F)c1cc(-c2ccc3c(c2)OCO3)nc(NCc2ccco2)n1`, the inhibition was -1.9% (inactive).

`Cc1cc(S(=O)(=O)NCCN2CCOCC2)c(C)s1`: the inhibition is 4.3% (inactive). Same read-out and setting: for `C=CCN1C(=O)/C(=C2/Sc3ccccc3N2CCCS(=O)(=O)O)SC1=S` the value was 0.3% (inactive); for `CCCCCCOC(=O)NCC(O)c1ccccc1` (centres undefined), 9.1% (inactive). Same read-out and setting: with `CCOc1ccc(C(=O)C(c2ccccc2)N2CCOCC2)cc1` (centres undefined) the figure was 4.3% (inactive); with `CC(=O)c1cccc(S(=O)(=O)N2CCC(n3nnc4cc(F)ccc43)CC2)c1`, 6.4% (inactive); with `O=C(COc1ccccc1)N1CCN(CC(O)COc2ccccc2)CC1` (centres undefined), 11.3% (inactive). On the same count and under the same terms, with `COC(=O)c1ccc(-n2nnnc2SCC(=O)N2CCCCC2)cc1` the figure was 3.1% (inactive); with `Cc1ccc(N/N=C/c2ccc(N3CCOCC3)cc2)cc1C`, -7.8% (inactive); with `CC(C)CN(C(=O)COC(=O)CCc1c[nH]c2ccccc12)C1CCS(=O)(=O)C1` (centres undefined), -23.6% (inactive).

On to `O=S(=O)(c1ccc2c(c1)OCCCO2)N1CCNCC1`, for which the inhibition is 0.7% (inactive). For `O=C(Cn1cccc1C(=O)c1ccccc1)NCCN1CCOCC1`, the inhibition was -4.4% (inactive). On to `CCOC(=O)C1=C(c2ccccc2)O/C(=C(/C#N)C(F)(F)F)S1`, for which the inhibition is 2.3% (inactive).

With `Fc1ccc(-n2[nH]nnc2=S)cc1N1CCCC1`, the inhibition is 10.6% (inactive). Same read-out and setting: for `CC/C(=N\NC(=O)CNC(=O)/C=C/c1ccco1)c1ccccc1` the value was -9.3% (inactive); for `CCN(CC)c1ccc(-c2nn3c(-c4n[nH]c5c4CCC5)nnc3s2)cc1`, 5.7% (inactive); for `N=c1nc(N)nc2n1NC(c1ccc(F)cc1)=CS2`, -1.7% (inactive). Turning to `Cc1ccc2[nH]c3c(c2c1)CCC3=O`, the inhibition was -8.6% (inactive). In the case of `O=[N+]([O-])c1ccc(/C=N/n2c(COc3ccccc3)n[nH]c2=S)cc1`, the inhibition is -4.5% (inactive). As to `COc1ccc(S(=O)(=O)NC(CC(=O)NCc2ccco2)C(C)C)cc1` (centres undefined), the inhibition is -5.2% (inactive). On the same count and under the same terms, with `CCOC(=O)c1cnc(-n2nc(C)cc2C)nc1NCc1ccccc1` the figure was -4.4% (inactive). With `COc1ccc(CCNc2oc(COc3ccccc3F)nc2C#N)cc1`, the inhibition was 0% (inactive).

Regarding `Cc1cc(C)cc(-n2nnnc2SCC(=O)Nc2nc(-c3ccc(Cl)cc3)cs2)c1`, the inhibition was -9.2% (inactive).

Regarding `O=C(Cc1ccc(-n2cccc2)cc1)NC1CCCCCC1`, the inhibition is -6.9% (inactive).

Consider `NCCN1CCN(CCN)CC1`, for which the inhibition is -3% (inactive).

`Cc1ccc(-c2nnc3ccc(SCC(=O)Nc4cc(C)on4)nn23)cc1`: the inhibition is -5.1% (inactive). Turning to `O=C(CCN1C(=O)C2C3C=CC(C3)C2C1=O)NCC1CCCO1` (centres undefined), the inhibition is 9.9% (inactive).

Consider `O=c1n(Cc2ccccc2F)c2ccccc2n1Cc1ccccc1F`, for which the inhibition was 5.3% (inactive).

As for `O=C(O)c1c[nH]c2ccc(S(=O)(=O)N3CCOCC3)cc12`, the inhibition was -7.4% (inactive). The same measure, in the same setting: with `O=C(CSc1nc2ccccc2s1)NNC(=S)Nc1ccc(Br)cc1` the figure was -0.6% (inactive); with `COc1ccc(-c2nc(C#N)c(NCCCN(C)C)o2)cc1OC`, 4.5% (inactive); with `O=C(CN1CCSCC1)N1CCc2[nH]c3ccc(Br)cc3c2C1`, 5.8% (inactive). The same measure, in the same setting: with `O=C1OCC(CO)(CO)N=C1NNc1ccccc1Cl` the figure was 19.6% (inactive); with `OC1(c2cccc(C(F)(F)F)c2)CCN(c2ncnc3c2[nH]c2ccc(F)cc23)CC1`, 7.8% (inactive); with `CNC(=O)CN(c1ccc(OC)cc1)S(=O)(=O)c1ccc(F)cc1`, -9% (inactive).

Turning to `CCCCCc1ccc(-c2ccc(=O)[nH]n2)cc1`, the inhibition was -6.9% (inactive). On to `CCOC(=O)Cc1csc(NC(=O)COc2ccc(N(C)S(=O)(=O)c3ccc(C)cc3)cc2)n1`, for which the inhibition is 0% (inactive).

`Nc1sccc1C(=O)c1ccc(Cl)cc1`: the inhibition is -15.5% (inactive). For the molecule `CCCn1nc([N+](=O)[O-])c(C(C#N)c2nc3ccccc3s2)c(Cl)c1=O` (centres undefined), the inhibition is 1.3% (inactive). Same read-out and setting: for `O=c1c2c3c(sc2nc2n1CCC2)CCC3` the value was -14.6% (inactive); for `CCOc1cc(NC(=O)c2ccco2)c(OCC)cc1NC(=O)CCC(=O)NCc1cccnc1`, 5.4% (inactive); for `Cc1ccc(OCc2ccoc2C(=O)O)cc1C`, -8.8% (inactive). Same read-out and setting: with `COc1cccc(/C=N/Nc2nc(Nc3ccccc3)nc(-n3nc(C)cc3C)n2)c1O` the figure was 1.2% (inactive); with `CCN1CCN(C(=O)CN(CCc2ccccc2)S(C)(=O)=O)CC1`, -9.3% (inactive); with `CC(N)Cc1ccccc1Sc1ccc(O)cc1` (centres undefined), 5.2% (inactive). On the same count and under the same terms, for `CCCOc1ccc(/C(O)=C2/C(=O)C(=O)N(CCOC)C2c2cccnc2)cc1` (centres undefined) the value was -4.5% (inactive).

With `COc1ccc(CN2C(=O)[C@@H]3C(c4ccc(F)cc4)=NO[C@@H]3C2=O)cc1`, the inhibition is 6.5% (inactive).

Consider `N#CCc1nc2c3c4c(sc3ncn2n1)CCCC4`, for which the inhibition is -15.1% (inactive). Still for that read-out and setting: for `O=C(COC(=O)c1ccccc1C(=O)c1ccc(Cl)c([N+](=O)[O-])c1)NC1CCCCCC1` the value was -8.3% (inactive); for `C=CCNC(=O)c1nn2cccnc2c1Cl`, -9.5% (inactive); for `CC1CCCN(c2nc3ccsc3c(=O)s2)C1` (centres undefined), 2.9% (inactive).

Regarding `O=C1c2cccc3c([N+](=O)[O-])ccc(c23)C(=O)N1c1nccs1`, the inhibition was -0.1% (inactive).

On to `Cc1noc(C)c1S(=O)(=O)N1CCC2(CC1)OCCO2`, for which the inhibition was -7.2% (inactive). On the same count and under the same terms, with `CCc1ccc(-c2nc(CN3CCC(C(=O)NCc4ccco4)CC3)c(C)o2)cc1` the figure was 9.2% (inactive). Still for that read-out and setting: with `CC(C)(C)SCCNC(=O)CN(c1ccc(F)cc1)S(C)(=O)=O` the figure was -2.5% (inactive); with `COc1ccc(Nc2cc(C(=O)NCCCN3CCOCC3)c3ccccc3n2)cc1OC`, 4.3% (inactive); with `Cn1c(NC(=O)C2c3ccccc3Oc3ccccc32)cc(=O)n(C)c1=O`, -0.3% (inactive). On the same count and under the same terms, for `COc1ccc(OC)c(C(=O)c2coc3ccc(O)cc23)c1` the value was -8.7% (inactive); for `Cn1c(SCc2nc(-c3ccc(Cl)cc3)no2)nnc1-c1cccs1`, 16.1% (inactive). As to `CCC(=O)Nc1nc(-c2ccccc2)ns1`, the inhibition is -1.3% (inactive).

Consider `CSc1nnc2n(-c3ccccc3)c(=O)c3c4c(sc3n12)CCC4`, for which the inhibition is 8.1% (inactive). Still for that read-out and setting: with `CN1C(=O)C2(NCCc3c2[nH]c2ccccc32)c2ccccc21` (centres undefined) the figure was -6.1% (inactive); with `CCCn1c(=O)c2ccccc2n2c(SCC(=O)NCc3cccs3)nnc12`, -5.9% (inactive). On the same count and under the same terms, for `CCCCOCCCNC(=O)c1cccs1` the value was -7.7% (inactive); for `Cc1csc(NC(=O)CSc2nnc(-c3ccc(S(=O)(=O)N4CCCC4)cc3)o2)n1`, 4.6% (inactive). Take `CCOc1ccc(C2=Nn3c(nnc3-c3ccccc3OC)SC2)cc1`: where the note is “cell count, at 10 µM, stronger effect = lower value”, the cell count came to 36.3%. For `Cc1cc(NC(=O)C(=O)NCCN2CCN(C(=O)c3cccs3)CC2)ccc1Br`, the inhibition was 0.6% (inactive). As to `CCOC(=O)c1cnn(-c2nc(-c3ccc(C)cc3)cs2)c1C(F)(F)F`, the inhibition was -7.1% (inactive). The same measure, in the same setting: for `CCOc1ccc(NC(=O)C2CCN(C(=O)NC3CCCCC3)CC2)cc1` the value was -1.9% (inactive); for `COC(=O)CN(c1ccc(F)cc1)S(=O)(=O)c1ccc2c(c1)OCCO2`, 10.7% (inactive); for `COc1ccc(-n2nnnc2S(=O)(=O)CC(=O)N2CCCCC2)cc1`, 0.7% (inactive). Consider `COc1ccc(CC(=O)OCc2cc3ccc(C)cc3[nH]c2=O)cc1`, for which the inhibition was 5.4% (inactive).

Take `C=CCn1c(N2CCCC2)nc2c1c(=O)[nH]c(=O)n2C`: the inhibition was -4.9% (inactive). Still for that read-out and setting: for `Cc1nc([N+](=O)[O-])c(Br)n1CC(=O)c1ccc(Br)cc1` the value was -7.3% (inactive).
